From patent US9718812B2, “Substituted thiazole or oxazole P2X7 receptor antagonists” (Axxam S.P.A., priority 2014, dated 2017) come the findings set out here.

In assay [1] the target is P2X7 receptor (hP2X7) (Homo sapiens (Human), UniProt Q99572). Kind of assay: Screen Quest Fluo-8 No Wash Calcium Assay (Bz-ATP-induced Ca2+ influx, FLIPR TETRA). In kind it is cell-based. As to conditions: HEK-293 cells stably transfected with P2X7 receptor, Fluo-8 calcium, Low Divalent Cation Assay Buffer. As for the experimental part:
Extracellular binding of Bz-ATP to P2X7 receptor opens the channel and allows Ca2+ influx into the cells. This Ca2+ entry was measured in HEK-293 cells stably transfected with P2X7 receptor using Screen Quest™ Fluo-8 No Wash Calcium Assay Kit (AAt Bioquest®, cat. 36316). Once inside the cell, the lipophilic blocking groups of Fluo-8 are cleaved by non-specific cell esterases, resulting in a negatively-charged fluorescent dye that stays inside cells. Its fluorescence increases upon binding to calcium. When HEK-293/P2X7 cells are stimulated with Bz-ATP, Ca2+ enters the cells and the fluorescence of Fluo-8 NW increases. The dye has an absorption spectrum compatible with excitation at 488 nm by argon laser sources and its emission wavelength is in the range of 515-575 nm.
HEK-293 cells stably transfected with P2X7 receptor were seeded overnight in growth medium at 10,000 to 20,000 cells/well in 384-well plate. 24 hours later, the medium was removed and the cells were pre-loaded at RT for 1 hour with 20 μL/w of Fluo-8 NW. Then 10 μL/w of test compounds and reference antagonist A438079 at 3×-concentration were injected with the […] and the kinetic response over a period of five minutes was monitored.

For assay [2], the target named is P2X7 receptor (Homo sapiens (Human), UniProt Q99572). Kind of assay: YO-PRO-1 Uptake Assay (large pore form, Bz-ATP stimulated). In kind it is cell-based. The following applies: HEK-293 cells stably transfected with P2X7 receptor; Bz-ATP EC80 (30 μM); 5 μM YO-PRO-1. From the text: YO-PRO®-1 is a fluorescent DNA-binding dye with a MW of 374 Da (Molecular Probes®, cat. Y3603). This method is based upon the presumed ability of YO-PRO®-1 to enter through the dilated or “large pore form” of P2X7 receptor and to bind to intracellular DNA whereupon it increases many fold its fluorescence intensity. The dye has an absorption spectrum compatible with excitation at 488 nm by argon laser sources and its emission wavelength is in the range of 515-575 nm. The aim of this assay was to validate the interaction of antagonists with P2X7 receptor using an alternative readout to Ca^2+-sensitive fluorescent dyes.
HEK-293 cells stably transfected with P2X7 receptor were seeded overnight in growth medium at 20,000 cells/well in 384-well plate. 24 hours later, the medium was removed, the cells were washed with Low Divalent Cation Assay Buffer (0.3 mM Ca2+ and 0 mM Mg2+) and then pre-loaded with 20 μL/w of 5 μM YO-PRO®-1 dye. […] fluorescence measurement immediately started. Then, 10 μL/w of test compounds and reference antagonist A438079 at 3×-concentration were injected with the […] and the kinetic response over a period of five minutes was monitored. A second injection of 10 μL/w of 3× Bz-ATP EC80 (30 μM) was performed with the […] and the signal of the emitted fluorescence was recorded for additional 60 minutes. All the experiment was carried out with a Low Divalent Cation Assay Buffer (0.3 mM Ca^2+ and 0 mM Mg^2+).
The effect of the test compounds was measured as percent inhibition vs the reference antagonist and IC50 values were calculated accordingly.

Chain of P2X7 receptor (hP2X7) (Q99572 whole entry): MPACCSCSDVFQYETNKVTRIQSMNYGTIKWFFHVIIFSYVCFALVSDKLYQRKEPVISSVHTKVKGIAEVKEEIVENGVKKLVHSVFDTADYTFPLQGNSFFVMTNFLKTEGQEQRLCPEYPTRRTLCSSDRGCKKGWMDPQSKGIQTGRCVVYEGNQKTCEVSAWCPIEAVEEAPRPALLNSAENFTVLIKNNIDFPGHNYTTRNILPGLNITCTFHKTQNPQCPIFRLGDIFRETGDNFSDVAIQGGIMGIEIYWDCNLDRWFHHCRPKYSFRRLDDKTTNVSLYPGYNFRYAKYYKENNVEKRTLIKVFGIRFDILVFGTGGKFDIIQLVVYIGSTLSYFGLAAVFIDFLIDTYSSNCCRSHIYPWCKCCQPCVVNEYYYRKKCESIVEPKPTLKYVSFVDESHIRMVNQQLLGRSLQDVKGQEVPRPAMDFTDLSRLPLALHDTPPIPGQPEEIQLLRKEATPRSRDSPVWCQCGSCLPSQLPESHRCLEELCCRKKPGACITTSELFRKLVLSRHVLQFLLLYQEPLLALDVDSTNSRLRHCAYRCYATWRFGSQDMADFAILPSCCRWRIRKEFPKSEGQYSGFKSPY
Chain of P2X7 receptor (Q99572 whole entry): as above

As usually defined, the IC50 is the midpoint of a concentration-inhibition curve. Consider `Cc1ncc(C(CNC(=O)c2cc(-c3ncc(F)cn3)ccc2Cl)N2CCC(F)(F)CC2)s1` (single isomer, unassigned; (-)) [Compound 128, (−)-2-chloro-N-[2-(4,4-difluoro-piperidin-1-yl)-2-(2-methylthiazol-5-yl)ethyl]-5-(5-fluoropyrimidin-2-yl)benzamide], for which the IC50 is 141 nM in assay [1] and 24 nM in assay [2].
The corresponding values for `O=C(NCC(c1nccs1)N1CCc2ccccc2C1)c1c(F)cccc1Cl` (centres unmarked) [Compound 1, 2-chloro-N-[2-(3,4-dihydro-1H-isoquinolin-2-yl)-2-(1,3-thiazol-2-yl)-ethyl]-6-fluoro-benzamide] are 1020 nM and 1360 nM.
The corresponding values for `O=C(NCC(c1nccs1)N1CCC(F)(F)CC1)c1c(F)cccc1Cl` (centres unmarked) [Compound 2, 2-chloro-N-[2-(4,4-difluoro-piperidin-1-yl)-2-(1,3-thiazol-2-yl)-ethyl]-6-fluoro-benzamide] are 306 nM and 1300 nM.
Turning to `O=C(NCC(c1cscn1)N1CCC(F)(F)CC1)c1c(F)cccc1Cl` (centres unmarked) [Compound 4, 2-chloro-N-[2-(4,4-difluoropiperidin-1-yl)-2-(1,3-thiazol-4-yl)ethyl]-6-fluorobenzamide], the IC50 amounted to 845 nM in assay [1] and 3300 nM in assay [2].
The corresponding values for `O=C(NCC(c1cscn1)N1CCc2ccccc2C1)c1c(F)cccc1Cl` (centres unmarked) [Compound 6, 2-chloro-N-[2-(3,4-dihydro-1H-isoquinolin-2-yl)-2-(1,3-thiazol-4-yl)-ethyl]-6-fluoro-benzamide] are 800 nM and 1260 nM.
On to `O=C(NCC(c1cscn1)N1CCCOCC1)c1c(F)cccc1Cl` (centres unmarked) [Compound 7], for which the IC50 was 840 nM in assay [1] and 1690 nM in assay [2].
With `O=C(NCC(c1cncs1)N1CCC(F)(F)CC1)c1c(F)cccc1Cl` (centres unmarked) [Compound 8, 2-chloro-N-[2-(4,4-difluoro-piperidin-1-yl)-2-(1,3-thiazol-5-yl)ethyl]-6-fluoro-benzamide], the values for the IC50 in assay [1] and in assay [2] were 28 nM and 389 nM, respectively.
The corresponding values for `O=C(NCC(c1cncs1)N1CCc2ccccc2C1)c1c(F)cccc1Cl` (centres unmarked) [Compound 9, 2-chloro-N-[2-(3,4-dihydro-1H-isoquinolin-2-yl)-2-(1,3-thiazol-5-yl)-ethyl]-6-fluoro-benzamide] are 100 nM and 464 nM.
The corresponding values for `O=C(NCC(c1cncs1)N1CCOCC1)c1c(F)cccc1Cl` (centres unmarked) [Compound 10, 2-chloro-6-fluoro-N(2-(morpholin-4-yl)-2-(thiazol-5-yl)-ethyl)benzamide] are 57 nM and 57 nM.
Turning to `Cc1cccc(C)c1C(=O)NCC(c1cncs1)N1CCOCC1` (centres unmarked) [Compound 11, 2,6-dimethyl-N-[2-(morpholin-4-yl)-2-(1,3-thiazol-5-yl)ethyl]benzamide], the concentration for half-maximal inhibition (IC50) worked out at 81 nM in assay [1] and 220 nM in assay [2].
The corresponding values for `Nc1ccc(Cl)c(C(=O)NCC(c2cncs2)N2CCOCC2)c1` (centres unmarked) [Compound 12, 5-amino-2-chloro-N-[2-(morpholin-4-yl)-2-(1,3-thiazol-5-yl)ethyl]benzamide-] are 143 nM and 846 nM.
The corresponding values for `Cc1cccc(Cl)c1C(=O)NCC(c1cncs1)N1CCOCC1` (centres unmarked) [Compound 13, 2-chloro-6-methyl-N-[2-(morpholin-4-yl)-2-(1,3-thiazol-5-yl)ethyl]benzamide] are 64 nM and 271 nM.
In the case of `Cc1cccc(Cl)c1C(=O)NCC(c1cncs1)N1CCC(F)(F)CC1` (centres unmarked) [Compound 15, 2-chloro-N-[2-(4,4-difluoropiperidin-1-yl)-2-(1,3-thiazol-5-yl)ethyl]-6-methylbenzamide], the IC50 worked out at 8 nM in assay [1] and 38 nM in assay [2].
The corresponding values for `Nc1ccc(Cl)c(C(=O)NCC(c2cncs2)N2CCC(F)(F)CC2)c1` (centres unmarked) [Compound 16, 5-amino-2-chloro-N-[2-(4,4-difluoropiperidin-1-yl)-2-(1,3-thiazol-5-yl)ethyl]benzamide] are 32 nM and 98 nM.
The corresponding values for `Nc1ccc(Cl)c(C(=O)NCC(c2cncs2)N2CCc3ccccc3C2)c1` (centres unmarked) [Compound 17, 5-amino-2-chloro-N-[2-(1,2,3,4-tetrahydroisoquinolin-2-yl)-2-(1,3-thiazol-5-yl)ethyl]benzamide] are 136 nM and 690 nM.
Consider `Cc1cccc(C)c1C(=O)NCC(c1cncs1)N1CCc2ccccc2C1` (centres unmarked) [Compound 18, 2,6-dimethyl-N-[2-(1,2,3,4-tetrahydroisoquinolin-2-yl)-2-(1,3-thiazol-5-yl)ethyl]benzamide], for which the IC50 in assay [1] amounted to 90 nM; in assay [2], 190 nM.
The corresponding values for `Cc1cccc(Cl)c1C(=O)NCC(c1cncs1)N1CCc2ccccc2C1` (centres unmarked) [Compound 19, 2-chloro-6-methyl-N-[2-(1,2,3,4-tetrahydroisoquinolin-2-yl)-2-(1,3-thiazol-5-yl)ethyl]benzamide] are 104 nM and 197 nM.
Take `O=C(NCC(c1cncs1)N1CCC(F)(F)CC1)c1cc(-c2ncc(F)cn2)ccc1Cl` (centres unmarked) [Compound 20, 2-chloro-N-[2-(4,4-difluoropiperidin-1-yl)-2-(1,3-thiazol-5-yl)ethyl]-5-(5-fluoropyrimidin-2-yl)-benzamide]: the IC50 in assay [1] was 34 nM; in assay [2], 30 nM.
As to `COc1cccc(C(=O)NCC(c2cncs2)N2CCC(F)(F)CC2)c1OC` (centres unmarked) [Compound 21, N-[2-(4,4-difluoropiperidin-1-yl)-2-(1,3-thiazol-5-yl)ethyl]-2,3-dimethoxybenzamide], the IC50 stood at 31 nM in assay [1] and 129 nM in assay [2].
Regarding `Cc1cccc(C)c1C(=O)NCC(c1cncs1)N1CCC(OCc2ccccc2)CC1` (centres unmarked) [Compound 23, N-{2-[4-(benzyloxy)piperidin-1-yl]-2-(1,3-thiazol-5-yl)ethyl}-2,6-dimethylbenzamide], the IC50 in assay [1] turned out to be 118 nM; in assay [2], 40 nM.
The corresponding values for `Cc1cccc(Cl)c1C(=O)NCC(c1cncs1)N1CCC(OCc2ccccc2)CC1` (centres unmarked) [Compound 24, N-{2-[4-(benzyloxy)piperidin-1-yl]-2-(1,3-thiazol-5-yl)ethyl}-2-chloro-6-methylbenzamide] are 111 nM and 44 nM.
On to `Cc1cccc(C)c1C(=O)NCC(c1cncs1)N1CCC(Oc2ccccc2)CC1` (centres unmarked) [Compound 26, 2,6-dimethyl-N-[2-(4-phenoxypiperidin-1-yl)-2-(1,3-thiazol-5-yl)ethyl]benzamide], for which the IC50 in assay [1] is 119 nM; in assay [2], 44 nM.
The compound `O=C(NCC(c1cnco1)N1CCC(F)(F)CC1)c1c(F)cccc1Cl` (centres unmarked) [Compound 45, 2-chloro-N-[2-(4,4-difluoropiperidin-1-yl)-2-(1,3-oxazol-5-yl)ethyl]-6-fluorobenzamide] displayed an IC50 in assay [2] of 225 nM.
In assay [2], `Cc1ncoc1C(CNC(=O)c1c(F)cccc1Cl)N1CCC(F)(F)CC1` (centres unmarked) [Compound 52, 2-chloro-N-[2-(4,4-difluoropiperidin-1-yl)-2-(4-methyl-1,3-oxazol-5-yl)ethyl]-6-fluorobenzamide] yielded an IC50 of 2070 nM.
Same read-out and setting: with `COc1cccc(C(=O)NCC(c2ocnc2C)N2CCOCC2)c1OC` (centres unmarked) [Compound 53, 2,3-dimethoxy-N-[2-(4-methyl-1,3-oxazol-5-yl)-2-(morpholin-4-yl)ethyl]benzamide] the figure was 4900 nM.
For the compound `CC(C)(C)c1ncc(C(CNC(=O)c2cccc3ncccc23)N2CCC(F)(F)CC2)s1` (centres unmarked) [Compound 124, N-[2-(2-tert-butyl-1,3-thiazol-5-yl)-2-(4,4-difluoropiperidin-1-yl)ethyl]quinoline-5-carboxamide], in assay [1], the IC50 was determined as 3950 nM.
On to `O=C(NCC(c1cnc(C2CCC(F)(F)CC2)s1)N1CCOCC1)c1cc(-c2ncc(F)cn2)ccc1Cl` (centres unmarked) [Compound 125, 2-chloro-N-{2-[2-(4,4-difluorocyclohexyl)-1,3-thiazol-5-yl]-2-(morpholin-4-yl)ethyl}-5-(5-fluoropyrimidin-2-yl)benzamide], for which the IC50 in assay [1] stood at 336 nM.
Consider `O=C(NCC(c1cnc(C2CCC(F)(F)CC2)s1)N1CCC(F)(F)CC1)c1cc(-c2ncc(F)cn2)ccc1Cl` (centres unmarked) [Compound 126], for which the IC50 in assay [1] was 1430 nM.
